From patent publication US12612412B2, “Antiviral heterocyclic compounds” (Enanta Pharmaceuticals, Inc., priority 2021, dated 2026)
Like-named read-outs stand apart in the source and are kept apart here.

Key:
[1] = system: genotype A, "Long" strain RSV; experiment: RSV-A assay (CPE protection in Hep-2 cells, ATPlite readout); assay type: cell-based, Human respiratory syncytial virus (HRSV); details: genotype A “Long” strain RSV, MOI 0.1, CPE protection, read-out: Human RSV-A (“Long”)
How it was run: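 Hep-2 cells (8,000/well) infected with RSV Long strain at MOI 0.1 in the presence of 2-fold compound dilutions in duplicate. After 5 days, cell viability measured by ATPlite luminescence, normalized between virus-only and uninfected cell controls; EC50 reported.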

[2] = system: recombinant HMPV CAN97-83 containing eGFP (MPV-GFP1); experiment: HMPV antiviral assay Method-A (MPV-GFP1 eGFP fluorescence in Vero E6 cells); assay type: cell-based, Human metapneumovirus (HMPV); details: read-out: HMPV EC50
Procedure: HMPV antiviral activity was evaluated using a recombinant version of HMPV CAN97-83 engineered to contain the coding sequence for enhanced green fluorescence protein (eGFP) in the 3′ end of the virus genome (MPV-GFP1, ViraTree). Vero E6 cells ([…]) were seeded at a density of 12,000 cells/100 μL/well into 96-well cell plates one day prior to the assay. On the day of screening, the cell culture medium was aspirated from the wells and cells were washed twice with serum-free Eagle's Modified Essential Medium (EMEM, ATCC #) containing 1% penicillin-streptomycin (Invitrogen) (SF-EMEM). Cell washes were performed by dispensing 100 μL SF-EMEM per well and immediately aspirating the wash medium from the well. Following the second wash step, serum-free OptiMEM (Invitrogen, Cat No.) (SF-OptiMEM) containing 0.5 μg/mL TPCK-Trypsin (VENDOR) and 1% penicillin-streptomycin was added to the cells at 50 μL/well. Compounds were added into the 96-well plates using a JANUS automated liquid handling system (VENDOR). Compounds were initially diluted 1:50 into an intermediate 96-well plate containing SF-OptiMEM prior to transfer to the assay plate (25 μL/well). Each of the test compounds were tested in duplicate wells at final concentrations starting from 8 μM or 2 μM using ½ stepwise dilutions for a total of 8 points. Virus infection was performed by preparing a working stock of MPV-GFP1 at a multiplicity of infection (MOI) equal to 0.05/25 μL and aliquoting 25 μL of virus inoculum to the compound and positive control wells. SF-OptiMEM was added (25 μL/well) to the appropriate wells to serve as a virus-free negative control for the assay. The final DMSO concentration of all wells is 0.5%. Plates were incubated at 32° C., 5% CO2 for 5 days.
After 5 days incubation, eGFP fluorescence intensity was measured at (X) […] wavelength using a Spectramax i3× plate reader (VENDOR). Percent viral inhibition was calculated using the following equation: y=[…]
Where XQ is the fluorescence intensity measured in a well containing recombinant MPV-GFP1-infected, compound-treated cells and XP is the average fluorescence intensity measured in the wells containing untreated cells infected with recombinant virus. EC50 values were then calculated by non-linear regression using a four parameter curve logistic equation. The curve fit model employed was XLFit Dose Response One Site Model 200: y=(A+(B/(1+((x/C)^D))))
Where A is the minimum y value, B is the maximum y value, C is the log EC50 value, and D is the slope factor. […] EC50 ranges are as follows: A<0.5 μM; B>0.5 μM.

[3] = human respiratory syncytial virus
[4] = human metapneumovirus, Vero C1008, 120 h

| SMILES | EC50 [1, 3] | EC50 [2, 4] | EC50 [1] | EC50 ([2]; Method-A, MPV-GFP1 in Vero E6 cells, eGFP fluorescence after 5 days) |
| --- | --- | --- | --- | --- |
| C[C@]1(C(N)=O)COc2c1cc([C@@](O)(CNC(=O)c1cc(Cl)c3[nH]ncc3c1)C(F)(F)F)nc2-c1ccc(F)cc1 [Example 103] | < 200 nM | < 500 nM | – | – |
| C[C@]1(C(N)=O)COc2c1cc([C@@](O)(CNC(=O)c1cc(C(F)(F)F)c3[nH]ncc3c1)C(F)(F)F)nc2-c1ccc(F)cc1 [Example 105] | < 200 nM | > 500 nM | – | – |
| COc1cc(C(=O)NC[C@](O)(c2cc3c(c(-c4ccc(F)cc4)n2)OC[C@]3(C)C(N)=O)C(F)(F)F)cc2cn[nH]c12 [Example 108] | < 200 nM | > 500 nM | – | – |
| COc1ccc(C(=O)NC[C@](O)(c2cc3c(c(-c4ccc(F)cc4)n2)OC[C@]3(C)C(N)=O)C(F)(F)F)cc1Nc1nccnn1 [Example 112] | < 200 nM | > 500 nM | – | – |
| Cc1cnc2c(Nc3ccc(C)nn3)cc(C(=O)NC[C@](O)(c3cc4c(c(-c5ccc(F)cc5)n3)OC[C@]4(C)C(N)=O)C(F)(F)F)cc2c1 [Example 113] | < 200 nM | < 500 nM | – | – |
| Cc1cnc2c(Nc3ccc(C4CC4)nn3)cc(C(=O)NC[C@](O)(c3cc4c(c(-c5ccc(F)cc5)n3)OC[C@]4(C)C(N)=O)C(F)(F)F)cc2c1 [Example 114] | < 200 nM | < 500 nM | – | – |
| Cc1cnc2c(Nc3ccc(O)nn3)cc(C(=O)NC[C@](O)(c3cc4c(c(-c5ccc(F)cc5)n3)OC[C@]4(C)C(N)=O)C(F)(F)F)cc2c1 [Example 120] | < 200 nM | > 500 nM | – | – |
| COc1ccc(Nc2cc(C(=O)NC[C@](O)(c3cc4c(c(-c5ccc(F)cc5)n3)OC[C@]4(C)C(N)=O)C(F)(F)F)cc3cc(C)cnc23)nn1 [Example 121] | < 200 nM | < 500 nM | – | – |
| [2H]C([2H])([2H])c1cc(C(=O)NC[C@](O)(c2cc3c(c(-c4ccc(F)cc4)n2)OC[C@]3(C)C(N)=O)C(F)(F)F)cc2cn[nH]c12 [Example 128] | < 200 nM | < 500 nM | – | – |
| C[C@]1(C(N)=O)COc2c1cc([C@@](O)(CNC(=O)c1ccc3[nH]c(=O)sc3c1)C(F)(F)F)nc2-c1ccc(F)cc1 [Example 129] | < 200 nM | > 500 nM | – | – |
| COc1cc(C(=O)NC[C@](O)(c2cc3c(c(-c4ccc(F)cc4)n2)OC[C@]3(C)C(N)=O)C(F)(F)F)ccc1OC[C@H](O)C(F)(F)F [Example 132] | < 200 nM | > 500 nM | – | – |
| COc1cc(C(=O)NC[C@](O)(c2cc3c(c(-c4ccc(F)cc4)n2)OC[C@]3(C)C(N)=O)C(F)(F)F)ccc1OCC1(O)CC1 [Example 134] | < 200 nM | > 500 nM | – | – |
| C[C@]1(C(N)=O)COc2c1cc([C@@](O)(CNC(=O)c1ccc(OC[C@H](O)C(F)(F)F)c(OC3CC3)c1)C(F)(F)F)nc2-c1ccc(F)cc1 [Example 135] | < 200 nM | > 500 nM | – | – |
| COc1cc(C(=O)NC[C@](O)(c2cc3c(c(-c4ccc(F)cc4)n2)OC[C@]3(C)C(N)=O)C(F)(F)F)ccc1OC[C@H](O)C(F)F [Example 136] | < 200 nM | > 500 nM | – | – |
| COc1cc(C(=O)NC[C@](O)(c2cc3c(c(-c4ccc(F)cc4)n2)OC[C@]3(C)C(N)=O)C(F)(F)F)ccc1OC[C@@H](C)O [Example 138] | < 200 nM | > 500 nM | – | – |
| CCNc1nc2ccc(C(=O)NC[C@](O)(c3cc4c(c(-c5ccc(F)cc5)n3)OC[C@]4(C)C(N)=O)C(F)(F)F)cc2s1 [Example 139] | < 200 nM | > 500 nM | – | – |
| C[C@]1(C(N)=O)COc2c1cc([C@@](O)(CNC(=O)c1ccc3nc(C(F)F)sc3c1)C(F)(F)F)nc2-c1ccc(F)cc1 [Example 141] | < 200 nM | > 500 nM | – | – |
| C[C@]1(C(N)=O)COc2c1cc([C@@](O)(CNC(=O)c1ccc3nc(CF)sc3c1)C(F)(F)F)nc2-c1ccc(F)cc1 [Example 142] | < 200 nM | > 500 nM | – | – |
| [2H]C([2H])([2H])c1cc2cc(C(=O)NC[C@](O)(c3cc4c(c(-c5ccc(F)cc5)n3)OC[C@]4(C)C(N)=O)C(F)(F)F)cc(OC)c2nc1C [Example 143] | < 200 nM | < 500 nM | – | – |

| SMILES | EC50 [1, 3] | EC50 [2, 4] | EC50 [1] | EC50 ([2]; Method-A, MPV-GFP1 in Vero E6 cells, eGFP fluorescence after 5 days) |
| --- | --- | --- | --- | --- |
| COc1cc(C(=O)NC[C@](O)(c2cc3c(c(-c4ccc(F)cc4)n2)OC[C@]3(C)C(N)=O)C(F)(F)F)cc2cc(CF)c(C)nc12 [Example 147] | < 200 nM | < 500 nM | – | – |
| COc1cc(C(=O)NC[C@](O)(c2cc3c(c(-c4ccc(F)cc4)n2)OC[C@]3(C)C(N)=O)C(F)(F)F)cc2cc(C(F)F)c(C)nc12 [Example 148] | < 200 nM | < 500 nM | – | – |
| COc1cc(C(=O)NC[C@](O)(c2cc3c(c(-c4ccc(F)cc4)n2)OC[C@]3(C)C(N)=O)C(F)(F)F)ccc1OC[C@@H](C)OP(=O)(O)O [Example 149] | < 200 nM | > 500 nM | – | – |
| C[C@]1(C(N)=O)COc2c1cc([C@@](O)(CNC(=O)c1ccc3nc(NC(=O)CN)sc3c1)C(F)(F)F)nc2-c1ccc(F)cc1 [Example 152] | < 200 nM | > 500 nM | – | – |
| C[C@H](N)C(=O)Nc1nc2ccc(C(=O)NC[C@](O)(c3cc4c(c(-c5ccc(F)cc5)n3)OC[C@]4(C)C(N)=O)C(F)(F)F)cc2s1 [Example 153] | < 200 nM | > 500 nM | – | – |
| C[C@@H](N)C(=O)Nc1nc2ccc(C(=O)NC[C@](O)(c3cc4c(c(-c5ccc(F)cc5)n3)OC[C@]4(C)C(N)=O)C(F)(F)F)cc2s1 [Example 154] | < 200 nM | > 500 nM | – | – |
| CC(C)[C@H](N)C(=O)Nc1nc2ccc(C(=O)NC[C@](O)(c3cc4c(c(-c5ccc(F)cc5)n3)OC[C@]4(C)C(N)=O)C(F)(F)F)cc2s1 [Example 155] | < 200 nM | > 500 nM | – | – |
| CC(C)[C@@H](N)C(=O)Nc1nc2ccc(C(=O)NC[C@](O)(c3cc4c(c(-c5ccc(F)cc5)n3)OC[C@]4(C)C(N)=O)C(F)(F)F)cc2s1 [Example 156] | < 200 nM | > 500 nM | – | – |
| C[C@@H](N)C(=O)Nc1nc2ccc(C(=O)NC[C@](O)(c3cc4c(c(-c5ccc(F)cc5)n3)OC[C@]4(C)C(N)=O)C(F)(F)F)cc2s1 [Example 158] | – | – | < 200 nM | > 500 nM |
| C[C@]1(C(N)=O)COc2c1cc([C@@](O)(CNC(=O)c1ccc3nc(NC(=O)[C@@H]4CCCN4)sc3c1)C(F)(F)F)nc2-c1ccc(F)cc1 [Example 160] | < 200 nM | > 500 nM | – | – |
| C[C@]1(C(N)=O)COc2c1cc([C@@](O)(CNC(=O)c1ccc3nc(CO)sc3c1)C(F)(F)F)nc2-c1ccc(F)cc1 [Example 161] | < 200 nM | > 500 nM | – | – |
| C[C@]1(C(N)=O)COc2c1cc([C@@](O)(CNC(=O)c1ccc3nc(NCCN)sc3c1)C(F)(F)F)nc2-c1ccc(F)cc1 [Example 165] | < 200 nM | > 500 nM | – | – |
| COc1cc(C(=O)NC[C@](O)(c2cc3c(c(-c4ccc(F)cc4)n2)OC[C@]3(C)C(N)=O)C(F)(F)F)cc2cc(C3CC3)c(CO)nc12 [Example 166] | < 200 nM | > 500 nM | – | – |
| COc1cc(C(=O)NC[C@](O)(c2cc3c(c(-c4ccc(F)cc4)n2)OC[C@]3(CO)C(N)=O)C(F)(F)F)cc2cc(C)c(C)nc12 [Example 167] | < 200 nM | > 500 nM | – | – |
| CCn1cc2cc(C(=O)NC[C@](O)(c3cc4c(c(-c5ccc(F)cc5)n3)OC[C@]4(C)C(N)=O)C(F)(F)F)ccc2n1 [Example 168] | < 200 nM | < 500 nM | – | – |
| CC(C)n1cc2cc(C(=O)NC[C@](O)(c3cc4c(c(-c5ccc(F)cc5)n3)OC[C@]4(C)C(N)=O)C(F)(F)F)ccc2n1 [Example 169] | < 200 nM | > 500 nM | – | – |
| C[C@]1(C(N)=O)COc2c1cc([C@@](O)(CNC(=O)c1ccc3nn(C4CC4)cc3c1)C(F)(F)F)nc2-c1ccc(F)cc1 [Example 170] | < 200 nM | < 500 nM | – | – |
| CCc1cc2cc(C(=O)NC[C@](O)(c3cc4c(c(-c5ccc(F)cc5)n3)OC[C@]4(C)C(N)=O)C(F)(F)F)cc(OC)c2nc1C [Example 174] | < 200 nM | > 500 nM | – | – |
| Cc1cc2cc(C(=O)NC[C@](O)(c3cc4c(c(-c5ccc(F)cc5)n3)OC[C@]4(C)C(N)=O)C(F)(F)F)cc(Cl)c2nc1C [Example 177] | < 200 nM | < 500 nM | – | – |
